Tests used:
[1] = biological target: T1, TEC (Homo sapiens (Human), UniProt P42680); assay: DiscoveRx Kd dose response, TEC; format: binding
Description: (§1) Kinase profiling was performed with M27 was done at DiscoveRx at a single dose of 1 μM on all available kinases (KINOMEscan). The overall kinase selectivity score is in Table 6. […] Kinases inhibited >65% at 1 μM for M27 were followed up with a dose response at DiscoveRx. The M27 had IC50 values <1 μM for almost the same set of kinases with exception of TXK, but with additional inhibition of BRK (PTK6).

[2] = biological target: T1, TEC; assay: TEC LanthaScreen assay; format: binding; conditions: 2h incubation
Description: TEC enzyme activity is measured using the LanthaScreen assay from ThermoFisher as outlined below.
TEC enzyme (LifeTech # PV3269) and Eu-anti-HIS antibody (Invitrogen # PV5596) are mixed and diluted in kinase buffer (50 mM Hepes pH 7.5+10 mM MgCl2+1 mM EGTA+0.01% Brij-35) to 3 and 6 nM, respectively. Final concentration in the assay for enzyme and antibody are 1 and 2 nM, respectively.
Tracer (Kinase Tracer 178, Invitrogen # PV5593) is diluted in Kinase buffer to 3 nM. Final concentration in the assay is 1 nM.
Serial dilutions log 10 from 1 mM to 3.16 nM of test compounds are made in 100% DMSO. The dilutions in DMSO are then diluted 33-fold in Kinase buffer (50 mM Hepes pH 7.5+10 mM MgCl2+1 mM EGTA+0.01% Brij-35).
The assay is performed as follows: 5 μL/well of TEC enzyme and EU-anti-His antibody dilution is mixed with 5 μL/well tracer dilution and 5 μL/well of compound dilution in Kinase buffer. Final compound concentration in the assay ranged from 10 μM to 0.316 nM, with 1% DMSO final concentration in assay. Following a 2h incubation at room the TR-FRET signal at 615 nm and 665 nm is read. The ratio 665/615 was used to calculate values expressed as percentage of the difference in readout (S/N) of the controls with and without Tracer. IC50 values were determined by curve fitting of the experimental results in Dotmatics.

[3] = test system: CYP3A4; assay: CYP induction, CYP3A4; format: in vitro ADME
[4] = test system: CYP3A4/5; assay: CYP inhibition, CYP3A4/5; format: in vitro ADME
[5] = biological target: T2, BMX (Homo sapiens (Human), UniProt P51813); assay: BMX Z'-LYTE kinase assay; format: biochemical; conditions: 1 h pre-incubation, Km ATP
T2 sequence (P51813 whole entry): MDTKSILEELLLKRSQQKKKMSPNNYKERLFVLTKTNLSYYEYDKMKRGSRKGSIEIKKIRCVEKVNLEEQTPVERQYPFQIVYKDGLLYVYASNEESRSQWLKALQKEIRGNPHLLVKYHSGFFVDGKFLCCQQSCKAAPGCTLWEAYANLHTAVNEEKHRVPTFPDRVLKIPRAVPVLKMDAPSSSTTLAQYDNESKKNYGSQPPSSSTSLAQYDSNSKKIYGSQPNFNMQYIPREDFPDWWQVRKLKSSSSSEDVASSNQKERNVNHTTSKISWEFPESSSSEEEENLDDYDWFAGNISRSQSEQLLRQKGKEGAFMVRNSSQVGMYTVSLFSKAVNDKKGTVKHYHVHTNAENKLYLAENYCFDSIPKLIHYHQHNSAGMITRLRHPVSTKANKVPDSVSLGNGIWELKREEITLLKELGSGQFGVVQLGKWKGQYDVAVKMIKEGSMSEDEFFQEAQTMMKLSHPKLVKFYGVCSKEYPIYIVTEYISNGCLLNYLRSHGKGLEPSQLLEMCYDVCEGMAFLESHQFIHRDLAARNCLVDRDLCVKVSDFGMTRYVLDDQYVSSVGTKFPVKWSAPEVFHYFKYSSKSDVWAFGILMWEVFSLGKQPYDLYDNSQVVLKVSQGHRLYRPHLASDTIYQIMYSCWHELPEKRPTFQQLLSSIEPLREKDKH
Description: (§2) BMX, TXK, EGFR, ERBB2, ERBB4, JAK3, BLK kinase activity was measured using the Z′-LYTE assay at Thermo Fisher. A 10-point dose response (final concentration in assay ranged from 10 μM to 0.5 nM in 3-fold dilution per dilution step) was generated with 1 h incubation of the test compound with the kinase prior to initiation of the kinase reaction by the addition of ATP. ATP concentration in the assay was Km ATP for the different kinases. IC50 values are determined by curve fitting of the experimental results at Thermo Fisher.

[6] = biological target: BTK (Homo sapiens (Human), UniProt Q06187); assay: BTK inhibition in a biochemical assay, relative to acalabrutinib
[7] = biological target: ERBB4 (Homo sapiens (Human), UniProt Q15303); assay: DiscoveRx Kd dose response, ERBB4; format: binding
Description: as §1

[8] = biological target: CYP2B6 (Homo sapiens (Human), UniProt P20813); assay: CYP inhibition, CYP2B6; format: in vitro ADME
[9] = biological target: T2, BMX; assay: DiscoveRx Kd dose response, BMX; format: binding
Description: as §1

[10] = biological target: JAK3 (Homo sapiens (Human), UniProt P52333); assay: JAK3 Z'-LYTE kinase assay; format: biochemical; conditions: 1 h pre-incubation, Km ATP
Chain of JAK3 (P52333 whole entry): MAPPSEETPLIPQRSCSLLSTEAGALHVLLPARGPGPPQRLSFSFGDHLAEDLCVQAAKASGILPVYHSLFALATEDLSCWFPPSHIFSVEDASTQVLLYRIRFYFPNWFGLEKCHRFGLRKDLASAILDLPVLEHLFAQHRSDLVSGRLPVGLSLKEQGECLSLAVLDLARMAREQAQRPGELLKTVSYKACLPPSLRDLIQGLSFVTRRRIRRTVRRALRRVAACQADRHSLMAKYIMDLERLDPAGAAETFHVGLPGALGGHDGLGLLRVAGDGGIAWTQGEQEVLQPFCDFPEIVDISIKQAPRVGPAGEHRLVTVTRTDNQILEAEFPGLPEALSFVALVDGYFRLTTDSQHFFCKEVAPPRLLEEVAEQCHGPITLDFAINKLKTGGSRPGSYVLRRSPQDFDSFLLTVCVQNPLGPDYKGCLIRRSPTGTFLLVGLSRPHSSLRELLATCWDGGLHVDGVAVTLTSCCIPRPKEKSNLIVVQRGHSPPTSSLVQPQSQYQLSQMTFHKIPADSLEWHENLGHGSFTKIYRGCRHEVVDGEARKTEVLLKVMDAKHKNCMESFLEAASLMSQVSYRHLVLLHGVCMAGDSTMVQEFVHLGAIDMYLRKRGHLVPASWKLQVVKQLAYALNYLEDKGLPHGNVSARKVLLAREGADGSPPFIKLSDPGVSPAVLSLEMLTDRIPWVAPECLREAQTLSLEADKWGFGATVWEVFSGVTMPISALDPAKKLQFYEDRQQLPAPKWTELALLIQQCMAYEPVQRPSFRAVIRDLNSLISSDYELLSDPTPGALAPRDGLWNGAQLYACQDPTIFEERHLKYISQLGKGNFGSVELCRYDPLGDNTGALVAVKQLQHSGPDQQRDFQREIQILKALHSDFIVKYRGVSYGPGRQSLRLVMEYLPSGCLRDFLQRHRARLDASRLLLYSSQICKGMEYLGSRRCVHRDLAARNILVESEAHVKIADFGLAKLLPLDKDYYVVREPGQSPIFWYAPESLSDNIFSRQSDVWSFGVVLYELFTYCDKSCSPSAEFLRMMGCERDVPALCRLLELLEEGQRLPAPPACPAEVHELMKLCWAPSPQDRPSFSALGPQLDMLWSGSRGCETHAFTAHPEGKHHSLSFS
Description: as §2

[11] = biological target: T3, ERBB2 (Homo sapiens (Human), UniProt P04626); assay: ERBB2 Z'-LYTE kinase assay; format: biochemical; conditions: 1 h pre-incubation, Km ATP
T3 sequence (P04626 23-1255): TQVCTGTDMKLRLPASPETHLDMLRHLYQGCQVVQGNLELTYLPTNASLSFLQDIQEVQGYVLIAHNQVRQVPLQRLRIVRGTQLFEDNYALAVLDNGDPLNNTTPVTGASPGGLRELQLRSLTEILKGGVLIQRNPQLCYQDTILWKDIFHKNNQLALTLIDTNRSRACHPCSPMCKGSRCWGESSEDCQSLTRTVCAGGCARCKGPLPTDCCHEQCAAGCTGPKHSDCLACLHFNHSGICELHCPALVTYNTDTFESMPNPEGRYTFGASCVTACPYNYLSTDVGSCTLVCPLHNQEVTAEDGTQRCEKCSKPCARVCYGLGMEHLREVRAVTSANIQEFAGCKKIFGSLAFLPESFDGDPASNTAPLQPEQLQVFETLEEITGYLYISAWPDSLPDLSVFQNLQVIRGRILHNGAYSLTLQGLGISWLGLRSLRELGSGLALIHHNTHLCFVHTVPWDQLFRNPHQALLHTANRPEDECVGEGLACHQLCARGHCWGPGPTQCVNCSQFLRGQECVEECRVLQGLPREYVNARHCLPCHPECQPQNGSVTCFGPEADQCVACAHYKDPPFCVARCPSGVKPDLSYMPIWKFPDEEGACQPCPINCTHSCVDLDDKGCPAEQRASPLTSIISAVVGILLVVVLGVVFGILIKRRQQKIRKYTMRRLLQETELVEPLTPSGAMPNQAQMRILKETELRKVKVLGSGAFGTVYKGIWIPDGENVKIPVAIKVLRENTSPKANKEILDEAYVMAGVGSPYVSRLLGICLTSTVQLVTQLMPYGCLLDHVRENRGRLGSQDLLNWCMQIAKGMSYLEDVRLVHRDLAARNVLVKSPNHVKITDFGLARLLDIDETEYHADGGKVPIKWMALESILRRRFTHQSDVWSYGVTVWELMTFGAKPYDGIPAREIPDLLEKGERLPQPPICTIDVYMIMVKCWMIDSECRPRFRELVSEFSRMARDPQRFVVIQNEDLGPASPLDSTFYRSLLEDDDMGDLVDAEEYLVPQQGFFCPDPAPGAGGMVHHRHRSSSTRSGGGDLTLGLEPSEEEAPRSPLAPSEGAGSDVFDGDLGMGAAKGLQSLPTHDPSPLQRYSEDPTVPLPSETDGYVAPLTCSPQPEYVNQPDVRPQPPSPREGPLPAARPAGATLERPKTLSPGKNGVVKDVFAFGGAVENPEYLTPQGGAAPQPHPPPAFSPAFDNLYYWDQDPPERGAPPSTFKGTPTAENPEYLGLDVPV
Description: as §2

[12] = biological target: LIMK1 (Homo sapiens (Human), UniProt P53667); assay: DiscoveRx Kd dose response, LIMK1; format: binding
Chain of LIMK1 (P53667 whole entry): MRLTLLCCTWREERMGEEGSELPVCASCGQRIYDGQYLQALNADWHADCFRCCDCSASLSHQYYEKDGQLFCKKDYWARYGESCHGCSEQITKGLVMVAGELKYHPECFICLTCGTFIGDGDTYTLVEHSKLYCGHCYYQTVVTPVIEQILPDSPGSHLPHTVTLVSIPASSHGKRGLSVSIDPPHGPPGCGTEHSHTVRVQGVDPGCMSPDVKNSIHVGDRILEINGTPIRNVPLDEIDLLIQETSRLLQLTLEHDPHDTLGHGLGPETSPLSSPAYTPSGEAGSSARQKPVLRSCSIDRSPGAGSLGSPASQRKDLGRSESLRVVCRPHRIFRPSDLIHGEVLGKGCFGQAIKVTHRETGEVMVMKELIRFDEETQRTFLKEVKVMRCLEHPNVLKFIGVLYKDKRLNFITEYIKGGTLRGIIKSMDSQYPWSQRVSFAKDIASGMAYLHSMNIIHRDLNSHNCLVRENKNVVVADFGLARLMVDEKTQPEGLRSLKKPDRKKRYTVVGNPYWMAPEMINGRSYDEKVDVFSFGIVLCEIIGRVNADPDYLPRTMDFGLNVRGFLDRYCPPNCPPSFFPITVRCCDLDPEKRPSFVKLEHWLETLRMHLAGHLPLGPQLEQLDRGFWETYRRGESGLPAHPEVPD
Description: as §1

[13] = biological target: T3, ERBB2; assay: DiscoveRx Kd dose response, ERBB2; format: binding
Description: as §1

[14] = biological target: EGFR (Homo sapiens (Human), UniProt P00533); assay: EGFR Z'-LYTE kinase assay; format: biochemical; conditions: 1 h pre-incubation, Km ATP
Description: as §2

[15] = biological target: CYP2D6 (Homo sapiens (Human), UniProt P10635); assay: CYP inhibition, CYP2D6; format: in vitro ADME
Chain of CYP2D6 (P10635 whole entry): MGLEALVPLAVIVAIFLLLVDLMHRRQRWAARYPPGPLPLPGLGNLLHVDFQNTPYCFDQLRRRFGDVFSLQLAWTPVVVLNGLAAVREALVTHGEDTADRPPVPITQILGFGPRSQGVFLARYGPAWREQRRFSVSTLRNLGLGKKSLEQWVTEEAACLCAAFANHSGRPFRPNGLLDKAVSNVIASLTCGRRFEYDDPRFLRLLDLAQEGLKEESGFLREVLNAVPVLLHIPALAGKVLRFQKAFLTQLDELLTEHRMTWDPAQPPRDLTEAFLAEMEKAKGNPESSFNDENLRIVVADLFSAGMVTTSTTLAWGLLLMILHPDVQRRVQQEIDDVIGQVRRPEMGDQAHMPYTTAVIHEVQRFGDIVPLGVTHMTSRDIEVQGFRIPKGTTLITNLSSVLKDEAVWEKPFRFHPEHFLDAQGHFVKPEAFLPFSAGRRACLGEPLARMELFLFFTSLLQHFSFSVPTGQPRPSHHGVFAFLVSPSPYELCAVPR

[16] = biological target: MEK5 (Homo sapiens (Human), UniProt Q13163); assay: DiscoveRx Kd dose response, MEK5; format: binding
Description: as §1

[17] = biological target: CYP2C19 (Homo sapiens (Human), UniProt P33261); assay: CYP inhibition, CYP2C19; format: in vitro ADME

T1 sequence (P42680 whole entry): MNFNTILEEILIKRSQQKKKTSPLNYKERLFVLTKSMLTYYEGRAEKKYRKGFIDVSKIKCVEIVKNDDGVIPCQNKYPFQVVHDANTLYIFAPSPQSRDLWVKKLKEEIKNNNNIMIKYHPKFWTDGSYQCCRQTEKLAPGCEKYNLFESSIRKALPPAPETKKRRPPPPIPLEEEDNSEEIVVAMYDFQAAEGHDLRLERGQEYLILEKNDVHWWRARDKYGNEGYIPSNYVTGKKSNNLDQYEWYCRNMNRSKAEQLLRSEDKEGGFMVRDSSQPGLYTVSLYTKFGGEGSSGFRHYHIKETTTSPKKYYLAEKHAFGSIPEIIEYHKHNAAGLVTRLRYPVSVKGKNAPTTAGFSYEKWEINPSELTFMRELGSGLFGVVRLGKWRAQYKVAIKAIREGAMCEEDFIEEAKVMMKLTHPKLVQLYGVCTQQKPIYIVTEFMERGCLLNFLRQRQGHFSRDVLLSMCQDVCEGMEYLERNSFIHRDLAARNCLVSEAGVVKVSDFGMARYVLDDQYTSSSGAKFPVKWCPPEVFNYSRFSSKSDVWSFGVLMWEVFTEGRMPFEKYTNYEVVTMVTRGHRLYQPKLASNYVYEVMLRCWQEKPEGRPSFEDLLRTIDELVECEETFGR

Kd [1]: 40 nM | IC50 [2]: 345 ± 34 nM | CYP3A4 induction [3]: weak inducer | CYP3A4/5 inhibition [4]: does not inhibit | IC50 [5]: 15 ± 2 nM | less potent than acalabrutinib with regard to BTK inhibition [6]: approximately 50% | Kd [7]: 970 nM | CYP2B6 inhibition [8]: does not inhibit | Kd [9]: 190 nM | IC50 [10]: > 10000 nM | IC50 [11]: 552 ± 166 nM | Kd [12]: 400 nM | Kd [13]: 120 nM | IC50 [14]: > 10000 nM | CYP2D6 inhibition [15]: does not inhibit | Kd [16]: 69 nM | CYP2C19 inhibition [17]: weak inhibitor
Structure (SMILES): CC#CC(=O)NCCCC(=O)c1nc(-c2ccc(C(=O)Nc3ccccn3)cc2)c2c(N)nccn12 [Formula (I), 4-(8-amino-3-(4-(but-2-ynamido)butanoyl)imidazo[1,5-a]pyrazin-1-yl)-N-(pyridin-2-yl)benzamide]
